Legend:
[1] = Diuretic action (general statement); assay type: in vivo; conditions: for diuretic action (in words): in vivo
[2] = Acute toxicity by oral dosage to mouse; conditions: in vivo
[3] = clinical tests; U.S. Pat. No. 4,497,826; cited from earlier work
[4] = clinical tests; U.S. Pat. No. 4,330,558; cited from earlier work
[5] = Acute toxicity by oral dosage to rat; conditions: in vivo
[6] = Acute toxicity by oral dosage to dog; conditions: in vivo
[7] = animals; U.S. Pat. No. 3,920,728; cited from earlier work
[8] = tested on: aromatic L-amino acid decarboxylase; conditions: cited from earlier work; for NA isomer formed: in vivo
[9] = U.S. Pat. No. 4,529,603; cited from earlier work
[10] = Effect of L-threo-DOPS on urinary volume of rats (Experimental Example 1); assay type: in vivo; conditions: rats, 10, 30, 100 mg/kg p.o., 3 hours, FIG. 1
Procedure: (§1) The ordinate represents the urinary volume (ml/kg/3 hr) and the abscissa, the amount of dosage of L-threo-DOPS (mg/kg).
(§2) In FIG. 1 and FIG. 2, the mark * represents p<0.05 (compared with the control group).
(§3) Three rats starved for 17 hours were arranged to form a group. Ten mg/kg, 30 mg/kg, and 100 mg/kg of L-threo-DOPS were suspended in a 0.5% aqueous solution of methyl cellulose, respectively, and orally administered together with 25 ml/kg of isotonic sodium chloride solution. To the control groups were dosed only 0.5% aqueous solution of methyl cellulose and isotonic sodium chloride solution. The urinary volume was measured through 3 hours after the dosage. In addition, among electrolytes in the urine, amounts of sodium ion (Na^+) and potassium ion (K^+) were measured by a flame photometer, and an amount of chlorine ion (Cl^-) by the method of Zall et al. (Anal. Chem. 28, 1665).

[11] = Effect of periphery decarboxylase inhibitor (DCI) on diuretic action of L-threo-DOPS (Experimental Example 3); assay type: in vivo, rats; conditions: for effect on diuretic action of L-threo-DOPS when used together (in words): p.o. at the same time with L-threo-DOPS
Procedure: Investigation was made on the effect of L-threo-DOPS on diuretic action when DCI, benserazide or carbidopa was dosed by oral administration at the same time, as in the same manner as Experimental Example 1.

[12] = Amount of NA in the kidney and heart of rats after the dosage of L-threo-DOPS (Experimental Example 4); assay type: in vivo
Procedure: To the rats were dosed 30 mg/kg of L-threo-DOPS by oral adminstration, and the amount of NA in the kidney and heart after 1 hour was measured.
The method for the measurement was nearly in accordance with the method of Suzuki, et al. (Europ. J. Clin. Pharmacol., 23, 463, 1982).

[13] = rats; Araki et al. 1978; cited from earlier work
[14] = Effect of L-threo-DOPS on electrolytes in urine of rats (Experimental Example 1); assay type: in vivo; conditions: for amount of Cl^- in urine / amount of K^+ in urine / amount of Na^+ in urine: 3 hours, average of 5 groups±S.E.
Procedure: as §3
In the table, values are represented in a unit of mEq/kg/3 hr and as the average of 5 groups±S.E.

[15] = rats; Araki et al. 1981; cited from earlier work
harmaline induced tremor = conditions: Japanese Patent Publication 125630/1977; cited from earlier work
[16] = Effect of L-threo-DOPS on urinary volume of mice (Experimental Example 2); assay type: in vivo; conditions: FIG. 2
Procedure: as §1, §2
Ten mice starved for 17 hours were arranged to form a group. Ten mg/kg, 30 mg/kg, and 100 mg/kg of L-threo-DOPS were suspended in a 0.5% aqueous solution of methyl cellulose, respectively, and orally administered together with […] of isotonic sodium chloride solution. To the control groups were dosed only 0.5% aqueous solution of methyl cellulose and isotonic sodium chloride solution.

renal blood vessel = conditions: in vivo; cited from earlier work
[17] = rats, 30 mg/kg p.o., after 1 hour, average of 5 rats±S.E.

For N[C@H](C(=O)O)[C@H](O)c1ccc(O)c(O)c1 (relative stereo) [DL-threo-DOPS], the “diuretic action (in words)” value [1] is listed as “significant diuretic action”, the LD50 [2] is listed as ≥ 10000 mg/kg and the “effect on freezing phenomena of Parkinson's disease” value [3] is listed as “beneficial effects”. For the same molecule, the “effect on orthostatic hypotension” value [4] was “beneficial effects”, the LD50 [5] was ≥ 10000 mg/kg and the LD50 [6] was ≥ 10000 mg/kg.

In the case of N[C@H](C(=O)O)[C@@H](O)c1ccc(O)c(O)c1 (relative stereo) [erythro-DOPS, reference compound], the “antihypertensive or antidepressive effect” value [7] is given as “antihypertensive or antidepressive effect”.

For N[C@H](C(=O)O)[C@H](O)c1ccc(O)c(O)c1 (relative stereo) [threo-DOPS, threo-3-(3,4-dihydroxyphenyl)-serine], the “antihypertensive or antidepressive effect” value [7] is given as “antihypertensive or antidepressive effect”.

For N[C@H](C(=O)O)C(O)c1ccc(O)c(O)c1 (stereo partly drawn) [L-DOPS], the “conversion to noradrenaline in vivo” value ([8]; by aromatic L-amino acid decarboxylase) is given as “converted to noradrenaline”.

In the case of N[C@H](C(=O)O)[C@@H](O)c1ccc(O)c(O)c1 [L-erythro-DOPS], the NA isomer formed [8] is given as “unnatural type d-NA” and the “effect on psychmotor excitement” value [9] is given as “suppressive effect”.

In the case of N[C@H](C(=O)O)[C@H](O)c1ccc(O)c(O)c1 [L-threo-DOPS], the “urinary volume (in words)” value [10] is reported as “Increase in the urinary volume was recognized in accordance with the amount of dosage”, the “course of diuretic action (in words)” value ([1]; easy manner such as oral administration) is reported as “uniformly and prolongably” and the “diuretic action (in words)” value [1] is reported as “significant diuretic action”. For the same molecule, the Urinary volume ([11]; L-threo-DOPS 30 mg/kg p.o. alone, average of 5 groups±S.E.) was 51.9 ± 3.0 ml/kg/3 hr, the LD50 [2] was ≥ 10000 mg/kg and the “effect on freezing phenomena of Parkinson's disease” value [3] was “beneficial effects”. For the same molecule, the “effect on orthostatic hypotension” value [4] was “beneficial effects”, the “NA in the heart (in words)” value ([12]; 30 mg/kg p.o.) was “no influence” and the “amount of NA in the kidney (in words)” value ([12]; 30 mg/kg p.o.) was “markedly increases”. For the same molecule, the “NA concentration in the kidney compared with those in other organs (in words)” value ([12]; rat, in vivo) was “significantly increased”, the “amount of NA in the heart” value [12, 17] was 1.00 ± 0.06 ng/g wet weight and the “amount of NA in the kidney” value [12, 17] was 1.80 ± 0.35 ng/g wet weight. For the same molecule, the positive chronotropic effect [13] was “positive chronotropic effect”, the “amount of Cl^- in urine” value ([14]; 10 mg/kg p.o.) was 1.89 ± 0.14 mEq/kg/3 hr and the “amount of K^+ in urine” value ([14]; 10 mg/kg p.o.) was 0.32 ± 0.03 mEq/kg/3 hr. The “amount of Na^+ in urine” value ([14]; 10 mg/kg p.o.) was 1.58 ± 0.12 mEq/kg/3 hr, the “amount of Cl^- in urine” value ([14]; 30 mg/kg p.o.) was 2.97 ± 0.25 mEq/kg/3 hr and the “amount of K^+ in urine” value ([14]; 30 mg/kg p.o.) was 0.37 ± 0.05 mEq/kg/3 hr. For the same molecule, the “amount of Na^+ in urine” value ([14]; 30 mg/kg p.o.) was 2.45 ± 0.32 mEq/kg/3 hr, the “amount of Cl^- in urine” value ([14]; 100 mg/kg p.o.) was 3.24 ± 0.07 mEq/kg/3 hr and the “amount of K^+ in urine” value ([14]; 100 mg/kg p.o.) was 0.45 ± 0.03 mEq/kg/3 hr. The “amount of Na^+ in urine” value ([14]; 100 mg/kg p.o.) was 3.15 ± 0.07 mEq/kg/3 hr, the “amount of Na^+ in urine (in words)” value ([14]; groups dosed 10 mg/kg or more p.o.) was “significantly increases” and the “amount of Cl^- in urine (in words)” value ([14]; only in groups dosed 30 mg/kg or more p.o.) was “significantly increased”. The “amount of K^+ in urine (in words)” value ([14]; only in the group dosed 100 mg/kg p.o.) was “significant increase”, the “amount of K^+ in urine (in words)” value ([14]; p.o., doses in general) was “not so much influenced” and the pressor effect [15] was “pressor effect”. For the same molecule, the NA isomer formed [8] was “natural type l-NA”, the “effect on harmaline induced tremor” value (harmaline induced tremor) was “inhibitory effect” and the LD50 [5] was ≥ 10000 mg/kg. For the same molecule, the LD50 [6] was ≥ 10000 mg/kg, the “urinary volume (in words)” value ([16]; mice, 10, 30, 100 mg/kg p.o.) was “increases the urinary volume in accordance with the amount of dosage” and the “urinary volume, significance (in words)” value ([16]; mice, group dosed 100 mg/kg p.o.) was “significant”.

In the case of NC(CO)C(=O)NNCc1ccc(O)c(O)c1O (stereo not drawn) [benserazide], the “effect on diuretic action of L-threo-DOPS when used together (in words)” value [11] is reported as “significantly decreased”.

In the case of C[C@@](Cc1ccc(O)c(O)c1)(NN)C(=O)O [carbidopa], the “effect on diuretic action of L-threo-DOPS when used together (in words)” value [11] is reported as “significantly decreased”.

For NC[C@H](O)c1ccc(O)c(O)c1 [l-NA], the “action on the renal blood vessel” value (renal blood vessel) is given as “contractive action” and the “effect on renal blood flow” value (renal blood vessel) is given as “decrease in the renal blood flow”.

Reference: patent US4647587A, “Method for treatment of antidiuresis employing serine derivatives” (Sumitomo Pharmaceuticals Company, Limited, priority 1984, dated 1987)
